In the experiment the target is T1, recombinant human MetAP2 (Homo sapiens, UniProt P50579).
T1 construct: Flag; made in house; host or cells: Sf9 insect cells
Briefly: Inhibition of recombinant human MetAP2 activity (Amplex red fluorescence assay). Format: biochemical. The settings on record: manganese enzyme, 0.75 mM Methionine-Alanine-Serine (MAS) substrate, 30 minutes at 25° C., pH 7.5, 1% DMSO. The method, then:
Compounds are tested for their capacity to inhibit recombinant human MetAP2 activity using the following assay.
Human recombinant Flag-MetAP2 expressed in Sf9 cells followed by affinity purification and EDTA treatment to remove endogenous active site cation is dialysed against MnCl2 to produce the manganese enzyme used in the assay. The assay is carried out for 30 minutes at 25° C. in 50 mM HEPES buffer containing 100 mM NaCl, pH 7.5 the presence of 0.75 mM Methionine-Alanine-Serine (MAS) substrate and […] amino acid oxidase using a dilution of purified MetAP2 giving approximately 50,000 RFU control activity. Cleavage of the substrate by MetAP2 and oxidation of free methionine by amino acid oxidase is detected and quantified using fluorescence generated by Amplex red (10-acetyl-3,7-dihydroxyphenoxazine) in combination with horseradish peroxidase which detects H2O2 released during the oxidation step. The fluorescent signal is detected using a multiwell fluorimeter. Compounds are diluted in DMSO prior to addition to assay buffer, the final DMSO concentration in the assay being 1%.
The IC50 is defined as the concentration at which a given compound achieves 50% inhibition of control. IC50 values are calculated using the XLfit software package (version 2.0.5).

T1 sequence (P50579 whole entry): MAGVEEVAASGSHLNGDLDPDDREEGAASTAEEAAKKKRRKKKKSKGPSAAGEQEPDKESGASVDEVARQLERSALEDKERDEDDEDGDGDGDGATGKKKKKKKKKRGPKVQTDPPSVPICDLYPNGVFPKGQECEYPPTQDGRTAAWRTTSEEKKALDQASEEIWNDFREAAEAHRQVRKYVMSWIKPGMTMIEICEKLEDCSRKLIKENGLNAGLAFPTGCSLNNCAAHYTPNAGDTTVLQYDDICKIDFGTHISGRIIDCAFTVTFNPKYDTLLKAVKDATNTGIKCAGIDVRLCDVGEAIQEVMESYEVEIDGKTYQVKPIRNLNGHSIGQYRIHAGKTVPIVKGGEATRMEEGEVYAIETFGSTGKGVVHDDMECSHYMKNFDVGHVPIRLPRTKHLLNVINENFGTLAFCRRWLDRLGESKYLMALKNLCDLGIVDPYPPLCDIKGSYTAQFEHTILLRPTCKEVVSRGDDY

The IC50 is the concentration needed to halve the response being measured. Regarding `O=C(O)c1c(NS(=O)(=O)c2ccccc2)sc2c1CCCO2`, the IC50 was < 200 nM. On to `O=C(O)c1c(NS(=O)(=O)c2ccccc2Cl)sc2c1CCCC2` [2-(2-Chlorobenzenesulphonylamino)-4,5,6,7-tetrahydrobenzo[b]thiophene-3-carboxylic acid], for which the IC50 was 200 to 2000 nM. Regarding `CCc1ccccc1S(=O)(=O)Nc1sc2c(c1C(=O)O)CCCC2` [2-(2-Ethylbenzenesulphonylamino)-4,5,6,7-tetrahydrobenzo[b]thiophene-3-carboxylic acid], the IC50 is < 200 nM. Consider `O=C(O)c1c(NS(=O)(=O)c2ccccc2F)sc2c1CCCC2` [2-(2-Fluorobenzenesulphonylamino)-4,5,6,7-tetrahydrobenzo[b]thiophene-3-carboxylic acid], for which the half-maximal inhibitory concentration (IC50) was in the range of 200 to 2000 nM. The result for `COc1ccccc1S(=O)(=O)Nc1sc2c(c1C(=O)O)CCCC2` [2-(2-Methoxybenzenesulphonylamino)-4,5,6,7-tetrahydrobenzo[b]thiophene-3-carboxylic acid] reads < 200 nM; that for `Cc1ccccc1S(=O)(=O)Nc1sc2c(c1C(=O)O)CCCC2` [2-(2-Methylbenzenesulphonylamino)-4,5,6,7-tetrahydrobenzo[b]thiophen-3-carboxylic acid], < 200 nM; that for `O=C(O)c1c(NS(=O)(=O)c2ccccc2C(F)(F)F)sc2c1CCCC2` [2-(2-Trifluoromethylbenzenesulphonylamino)-4,5,6,7-tetrahydrobenzo[b]thiophene-3-carboxylic acid], 200 to 2000 nM.

As to `O=C(O)c1c(NS(=O)(=O)c2cccc(Cl)c2)sc2c1CCCC2` [2-(3-Chlorobenzenesulphonylamino)-4,5,6,7-tetrahydrobenzo[[b]thiophene-3-carboxylic acid], the IC50 was in the range of 200 to 2000 nM. The value for `COc1cccc(S(=O)(=O)Nc2sc3c(c2C(=O)O)CCCC3)c1` [2-(3-Methoxybenzenensulphonylamino)-4,5,6,7-tetrahydrobenzo[b]thiophene-3-carboxylic acid] was 200 to 2000 nM; that for `O=C(O)c1c(NS(=O)(=O)c2ccc(Cl)cc2)sc2c1CCCC2` [2-(4-Chlorobenzenesulphonylamino)-4,5,6,7-tetrahydrobenzo[b]thiophene-3-carboxylic acid] was 200 to 2000 nM; that for `Cc1cc(F)ccc1S(=O)(=O)Nc1sc2c(c1C(=O)O)CCCC2` [2-(4-Fluoro-2-methylbenzenesulphonylamino)-4,5,6,7-tetrahydrobenzo[b]thiophene-3-carboxylic acid] was 200 to 2000 nM. Regarding `O=C(O)c1c(NS(=O)(=O)c2ccc(F)cc2)sc2c1CCCC2` [2-(4-Fluorobenzenesulphonylamino)-4,5,6,7-tetrahydrobenzo[b]thiophene-3-carboxylic acid], the IC50 is < 200 nM. For the compound `O=C(O)c1c(NS(=O)(=O)C2CCCCC2)sc2c1CCCC2` [2-(Cyclohexanesulphonylamino)-4,5,6,7-tetrahydrobenzo[b]thiophene-3-carboxylic acid], the IC50 was in the range of 200 to 2000 nM.

Consider `CC1CCc2sc(NS(=O)(=O)c3ccccc3)c(C(=O)O)c2C1` (stereo not shown) [2-Benzenensulphonylamino-5-methyl-4,5,6,7-tetrahydrobenzo[b]thiophene-3-carboxylic acid], for which the IC50 lay within 200 to 2000 nM. The result for `Cn1c2c(c(C(=O)O)c1NS(=O)(=O)c1ccccc1)CCCC2` [2-Benzenesulphonylamino-1-methyl-4,5,6,7-tetrahydro-1H-indole-3-carboxylic acid] reads 200 to 2000 nM; that for `O=C(O)c1c(NS(=O)(=O)c2ccccc2)sc2c1CCCC2` [2-Benzenesulphonylamino-4,5,6,7-tetrahydrobenzo[b]thiophene-3-carboxylic acid], < 200 nM; that for `O=C(O)c1c(NS(=O)(=O)c2ccccc2)sc2c1CCOC2` [2-Benzenesulphonylamino-4,7-dihydro-5H-thieno[2,3-c]pyran-3-carboxylic acid], 200 to 2000 nM. With `Cc1c(-c2ccccc2)sc(NS(=O)(=O)c2ccccc2)c1C(=O)O` [2-Benzenesulphonylamino-4-methyl-5-phenylthiophene-3-carboxylic acid], the IC50 is > 2000 nM. Consider `CC1(C)CCc2sc(NS(=O)(=O)c3ccccc3)c(C(=O)O)c2C1` [2-Benzenesulphonylamino-5,5-dimethyl-4,5,6,7-tetrahydrobenzo[b]thiophene-3-carboxylic acid], for which the IC50 was in the range of 200 to 2000 nM. In the case of `O=C(O)c1c(NS(=O)(=O)c2ccccc2)sc2c1CCC2` [2-Benzenesulphonylamino-5,6-dihydro-4H-cyclopenta[b]thiophene-3-carboxylic acid], the IC50 is 200 to 2000 nM. Regarding `Cc1c(-c2ccoc2)sc(NS(=O)(=O)c2ccccc2)c1C(=O)O` [2-Benzenesulphonylamino-5-(furan-3-yl)-4-methylthiophene-3-carboxylic acid], the IC50 lay in the range of 200 to 2000 nM.

Take `O=C(O)c1cc(C2CCOCC2)sc1NS(=O)(=O)c1ccccc1` [2-Benzenesulphonylamino-5-(tetrahydropyran-4-yl)thiophene-3-carboxylic acid]: the 50% inhibitory concentration (IC50) was > 2000 nM. On to `CCc1sc(NS(=O)(=O)c2ccccc2)c(C(=O)O)c1C(C)C` [2-Benzenesulphonylamino-5-ethyl-4-isopropylthiophene-3-carboxylic acid], for which the IC50 is 200 to 2000 nM. `CCc1sc(NS(=O)(=O)c2ccccc2)c(C(=O)O)c1C` [2-Benzenesulphonylamino-5-ethyl-4-methylthiophene-3-carboxylic acid]: the IC50 fell in the range of 200 to 2000 nM. With `O=C(O)c1cc(-c2ccccc2)sc1NS(=O)(=O)c1ccccc1` [2-Benzenesulphonylamino-5-phenylthiophene-3-carboxylic acid], the IC50 was > 2000 nM. The result for `CC1(C)CCc2c(sc(NS(=O)(=O)c3ccccc3)c2C(=O)O)C1` [2-Benzenesulphonylamino-6,6-dimethyl-4,5,6,7-tetrahydrobenzo[b]thiophene-3-carboxylic acid] reads 200 to 2000 nM; that for `O=C(O)c1c(NS(=O)(=O)c2ccccc2)sc2c1COCC2` [2-Benzenesulphonylamino-6,7-dihydro-4H-thieno[3,2-c]pyran-3-carboxylic acid], 200 to 2000 nM. With `CC1CCc2c(sc(NS(=O)(=O)c3ccccc3)c2C(=O)O)C1` (stereo not shown) [2-Benzenesulphonylamino-6-methyl-4,5,6,7-tetrahydrobenzo[b]thiophene-3-carboxylic acid], the IC50 is < 200 nM. As to `O=C(O)c1c(NS(=O)(=O)c2ccccc2)sc2ccccc12` [2-Benzenesulphonylaminobenzo[b]thiophene-3-carboxylic acid], the half-inhibitory concentration (IC50) is > 2000 nM. Take `O=C(O)c1c(NS(=O)(=O)Cc2ccccc2)sc2c1CCCC2` [2-Phenylmethanesulphonylamino-4,5,6,7-tetrahydrobenzo[b]thiophene-3-carboxylic acid]: the IC50 fell in the range of 200 to 2000 nM.

As to `CCN(CC)C/C=C\c1ccccc1S(=O)(=O)Nc1sc2c(c1C(=O)O)CCCC2` [2-[2-((Z)-3-Diethylaminoprop-1-enyl)benzenesulphonylamino]-4,5,6,7-tetrahydrobenzo[b]thiophene-3-carboxylic acid], the IC50 lay in the range of 200 to 2000 nM.
